Measurements from patent US11753407B2, “Compounds for treating spinal muscular atrophy” (PTC Therapeutics, Inc., priority 2012, dated 2023).

What was measured:
[1] = system: SMN2 minigene mRNA (SMN2-A minigene) in HEK293H cells; assay: SMN2 minigene mRNA splicing RT-qPCR assay in cultured cells; format: cell-based, human; settings: Homo sapiens, HEK293-H; concentration increasing full length SMN2 mRNA 1.5-fold relative to vehicle-treated cells; HEK293H cells with SMN2-A minigene, 24 hours, 7-point concentration data; read-out: EC1.5x for production of full length SMN2 mRNA
In short: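 EC1.5× values derive from a 24 h treatment of SMN2-A minigene HEK293H cells and GAPDH-normalized RT-qPCR of exon 7-included minigene mRNA relative to vehicle-treated cells.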

[2] = system: Smn protein in SMA patient fibroblast cells (GM03813); assay: Smn protein assay in cultured cells (SMN HTRF); format: cell-based, human; settings: SMA patient fibroblast cells, 48 hours; for maximum fold (Fold) increase of Smn protein: 7-point concentration data, fold relative to vehicle control
In short: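 Cells were cultured 72 h, seeded at 5,000/well and dosed with seven concentrations (3.16-fold apart) for 48 h. HTRF on lysates, read at 665 and 620 nm, gave blank-corrected ΔF values relative to DMSO. Potency is reported as EC1.5×, efficacy as maximal fold Smn increase.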

For `CC1(C)CN(c2ccc3nc(-c4ccc5c(c4)OCCO5)cc(=O)n3c2)CCN1` [Compound 36, 2-(2,3-dihydro-1,4-benzodioxin-6-yl)-7-(3,3-dimethylpiperazin-1-yl)-4H-pyrido[1,2-a]pyrimidin-4-one], the melting point was 196 to 198 °C, the EC (1.5-fold increase) [1] was 3 to 30 µM and the “maximum fold (Fold) increase of Smn protein” value (“maximum fold (Fold) increase” for short) [2] was “* (A maximum fold increase of ≤1.2 is indicated by one star (*))”.

With `C[C@@H]1CN(c2ccc3nc(-c4ccc5c(c4)OCCO5)cc(=O)n3c2)C[C@H](C)N1` [Compound 37, 2-(2,3-dihydro-1,4-benzodioxin-6-yl)-7-[(3R,5S)-3,5-dimethylpiperazin-1-yl]-4H-pyrido[1,2-a]pyrimidin-4-one] the melting point was 247 to 250 °C, the EC (1.5-fold increase) [1] was 1 to 3 µM and the “maximum fold (Fold) increase” value [2] was “* (A maximum fold increase of ≤1.2 is indicated by one star (*))”.

For `O=c1cc(-c2ccc3c(c2)OCCO3)nc2ccc(N3CCCNCC3)cn12` [Compound 38, 7-(1,4-diazepan-1-yl)-2-(2,3-dihydro-1,4-benzodioxin-6-yl)-4H-pyrido[1,2-a]pyrimidin-4-one], the melting point was 180 to 182 °C, the EC (1.5-fold increase) [1] was 3 to 30 µM and the “maximum fold (Fold) increase” value [2] was “* (A maximum fold increase of ≤1.2 is indicated by one star (*))”.

In the case of `CN1CCCN(c2ccc3nc(-c4ccc5c(c4)OCCO5)cc(=O)n3c2)CC1` [Compound 39, 2-(2,3-dihydro-1,4-benzodioxin-6-yl)-7-(4-methyl-1,4-diazepan-1-yl)-4H-pyrido[1,2-a]pyrimidin-4-one], the melting point is reported as 150 to 152 °C, the EC (1.5-fold increase) [1] is reported as 3 to 30 µM and the “maximum fold (Fold) increase” value [2] is reported as “* (A maximum fold increase of ≤1.2 is indicated by one star (*))”.

For `COc1ccc(-c2cc(=O)n3cc(N4CCN(C)CC4)cc(F)c3n2)cc1OC` [Compound 40, 2-(3,4-dimethoxyphenyl)-9-fluoro-7-(4-methylpiperazin-1-yl)-4H-pyrido[1,2-a]pyrimidin-4-one], the melting point was 183 to 185 °C, the EC (1.5-fold increase) [1] was 3 to 30 µM and the “maximum fold (Fold) increase” value [2] was “* (A maximum fold increase of ≤1.2 is indicated by one star (*))”.

For `O=c1cc(-c2cccc(Cl)c2)nc2ccc(N3CCNCC3)cn12` [Compound 41, 2-(3-chlorophenyl)-7-(piperazin-1-yl)-4H-pyrido[1,2-a]pyrimidin-4-one], the melting point was 185 to 189 °C, the EC (1.5-fold increase) [1] was 0.3 to 1 µM and the “maximum fold (Fold) increase” value [2] was “*** (a fold increase between >1.35 and ≤1.5 is indicated by three stars (***))”.

With `O=c1cc(-c2ccc(Cl)cc2)nc2ccc(N3CCNCC3)cn12` [Compound 42, 2-(4-chlorophenyl)-7-(piperazin-1-yl)-4H-pyrido[1,2-a]pyrimidin-4-one] the melting point was 207 to 212 °C, the EC (1.5-fold increase) [1] was 1 to 3 µM and the “maximum fold (Fold) increase” value [2] was “* (A maximum fold increase of ≤1.2 is indicated by one star (*))”.

With `O=c1cc(-c2cccc(C(F)(F)F)c2)nc2ccc(N3CCNCC3)cn12` [Compound 43, 7-(piperazin-1-yl)-2-[3-(trifluoromethyl)phenyl]-4H-pyrido[1,2-a]pyrimidin-4-one] the melting point was 199 to 207 °C, the EC (1.5-fold increase) [1] was 0.1 to 0.3 µM and the “EC1.5x for Smn protein expression” value ([2]; 7-point concentration curve, SMN HTRF, concentration producing 1.5 times Smn protein vs DMSO vehicle control) was “** (an EC1.5× between >1 μM and ≤3 μM is indicated by two stars (**))”. For the same molecule, the “maximum fold (Fold) increase” value [2] was “*** (a fold increase between >1.35 and ≤1.5 is indicated by three stars (***))”.

In the case of `O=c1cc(-c2ccc(C(F)(F)F)cc2)nc2ccc(N3CCNCC3)cn12` [Compound 44, 7-(piperazin-1-yl)-2-[4-(trifluoromethyl)phenyl]-4H-pyrido[1,2-a]pyrimidin-4-one], the melting point is reported as 285 °C (dec.), the EC (1.5-fold increase) [1] is reported as 1 to 3 µM and the “maximum fold (Fold) increase” value [2] is reported as “* (A maximum fold increase of ≤1.2 is indicated by one star (*))”.

In the case of `Cc1cccc(-c2cc(=O)n3cc(N4CCNCC4)ccc3n2)c1` [Compound 45, 2-(3-methylphenyl)-7-(piperazin-1-yl)-4H-pyrido[1,2-a]pyrimidin-4-one], the melting point is reported as 183 to 187 °C, the EC (1.5-fold increase) [1] is reported as 3 to 30 µM and the “maximum fold (Fold) increase” value [2] is reported as “** (a fold increase between >1.2 and ≤1.35 is indicated by two stars (**))”.

In the case of `O=c1cc(-c2ccc(F)cc2)nc2ccc(N3CCNCC3)cn12` [Compound 46, 2-(4-fluorophenyl)-7-(piperazin-1-yl)-4H-pyrido[1,2-a]pyrimidin-4-one], the melting point is reported as 214 to 218 °C, the EC (1.5-fold increase) [1] is reported as 1 to 3 µM and the “maximum fold (Fold) increase” value [2] is reported as “*** (a fold increase between >1.35 and ≤1.5 is indicated by three stars (***))”.

For `O=c1cc(-c2ccc([N+](=O)[O-])cc2)nc2ccc(N3CCNCC3)cn12` [Compound 47, 2-(4-nitrophenyl)-7-(piperazin-1-yl)-4H-pyrido[1,2-a]pyrimidin-4-one], the melting point was 237 to 242 °C, the EC (1.5-fold increase) [1] was 1 to 3 µM and the “maximum fold (Fold) increase” value [2] was “*** (a fold increase between >1.35 and ≤1.5 is indicated by three stars (***))”.

With `COc1ccc(-c2cc(=O)n3cc(NC4CCNCC4)cc(F)c3n2)cc1OC` [Compound 48, 2-(3,4-dimethoxyphenyl)-9-fluoro-7-(piperidin-4-ylamino)-4H-pyrido[1,2-a]pyrimidin-4-one] the melting point was 224 to 226 °C, the EC (1.5-fold increase) [1] was 3 to 30 µM and the “maximum fold (Fold) increase” value [2] was “* (A maximum fold increase of ≤1.2 is indicated by one star (*))”.

For `CN(C)c1ccc(-c2cc(=O)n3cc(N4CCNCC4)cc(F)c3n2)cc1` [Compound 49, 2-[4-(dimethylamino)phenyl]-9-fluoro-7-(piperazin-1-yl)-4H-pyrido[1,2-a]pyrimidin-4-one], the melting point was 216 to 218 °C, the EC (1.5-fold increase) [1] was 3 to 30 µM and the “maximum fold (Fold) increase” value [2] was “* (A maximum fold increase of ≤1.2 is indicated by one star (*))”.

For `C[C@@H]1CN(c2cc(F)c3nc(-c4ccc(N(C)C)cc4)cc(=O)n3c2)CCN1` [Compound 50, 2-[4-(dimethylamino)phenyl]-9-fluoro-7-[(3R)-3-methylpiperazin-1-yl]-4H-pyrido[1,2-a]pyrimidin-4-one], the melting point was 205 to 207 °C, the EC (1.5-fold increase) [1] was 3 to 30 µM and the “maximum fold (Fold) increase” value [2] was “** (a fold increase between >1.2 and ≤1.35 is indicated by two stars (**))”.

In the case of `O=c1cc(-c2ccccc2F)nc2ccc(N3CCNCC3)cn12` [Compound 51, 2-(2-fluorophenyl)-7-(piperazin-1-yl)-4H-pyrido[1,2-a]pyrimidin-4-one], the melting point is reported as 142 to 146 °C, the EC (1.5-fold increase) [1] is reported as 3 to 30 µM and the “maximum fold (Fold) increase” value [2] is reported as “** (a fold increase between >1.2 and ≤1.35 is indicated by two stars (**))”.

With `CN(C)c1ccc(-c2cc(=O)n3cc(N4CCNCC4)ccc3n2)cc1` [Compound 53, 2-[4-(dimethylamino)phenyl]-7-(piperazin-1-yl)-4H-pyrido[1,2-a]pyrimidin-4-one] the melting point was 211 to 215 °C, the EC (1.5-fold increase) [1] was 1 to 3 µM and the “maximum fold (Fold) increase” value [2] was “* (A maximum fold increase of ≤1.2 is indicated by one star (*))”.

With `C[C@H]1CN(c2ccc3nc(-c4ccc(N(C)C)cc4)cc(=O)n3c2)CCN1` [Compound 54, 2-[4-(dimethylamino)phenyl]-7-[(3S)-3-methylpiperazin-1-yl]-4H-pyrido[1,2-a]pyrimidin-4-one] the melting point was 199 to 202 °C, the EC (1.5-fold increase) [1] was 1 to 3 µM and the “maximum fold (Fold) increase” value [2] was “* (A maximum fold increase of ≤1.2 is indicated by one star (*))”.

With `Cc1ccc(-c2cc(=O)n3cc(N4CCNCC4)ccc3n2)cc1C` [Compound 55, 2-(3,4-dimethylphenyl)-7-(piperazin-1-yl)-4H-pyrido[1,2-a]pyrimidin-4-one] the melting point was 186 to 188 °C, the EC (1.5-fold increase) [1] was 1 to 3 µM and the “maximum fold (Fold) increase” value [2] was “* (A maximum fold increase of ≤1.2 is indicated by one star (*))”.

For `Cc1ccc(-c2cc(=O)n3cc(N4CCN[C@@H](C)C4)ccc3n2)cc1C` [Compound 56, 2-(3,4-dimethylphenyl)-7-[(3S)-3-methylpiperazin-1-yl]-4H-pyrido[1,2-a]pyrimidin-4-one], the melting point was 207 to 209 °C, the EC (1.5-fold increase) [1] was 1 to 3 µM and the “maximum fold (Fold) increase” value [2] was “* (A maximum fold increase of ≤1.2 is indicated by one star (*))”.

For `CN(C)c1cccc(-c2cc(=O)n3cc(N4CCNCC4)ccc3n2)c1` [Compound 57, 2-[3-(dimethylamino)phenyl]-7-(piperazin-1-yl)-4H-pyrido[1,2-a]pyrimidin-4-one], the melting point was 178 to 180 °C, the EC (1.5-fold increase) [1] was 3 to 30 µM and the “maximum fold (Fold) increase” value [2] was “* (A maximum fold increase of ≤1.2 is indicated by one star (*))”.

With `C[C@H]1CN(c2ccc3nc(-c4cccc(N(C)C)c4)cc(=O)n3c2)CCN1` [Compound 58, 2-[3-(dimethylamino)phenyl]-7-[(3S)-3-methylpiperazin-1-yl]-4H-pyrido[1,2-a]pyrimidin-4-one] the melting point was 144 to 146 °C, the EC (1.5-fold increase) [1] was 3 to 30 µM and the “maximum fold (Fold) increase” value [2] was “* (A maximum fold increase of ≤1.2 is indicated by one star (*))”.

For `O=c1cc(-c2ccc(OC(F)F)cc2)nc2ccc(N3CCNCC3)cn12` [Compound 59, 2-[4-(difluoromethoxy)phenyl]-7-(piperazin-1-yl)-4H-pyrido[1,2-a]pyrimidin-4-one], the melting point was 131 to 133 °C, the EC (1.5-fold increase) [1] was 1 to 3 µM and the “maximum fold (Fold) increase” value [2] was “* (A maximum fold increase of ≤1.2 is indicated by one star (*))”.
